Test results reported in US12349973B2 (priority 2019, dated 2025).

Key:
[1] = test system: accommodation control system / ciliary body muscarinic receptors; details: in vivo
[2] = target: human iris muscarinic receptors; details: cited from earlier work
[3] = test system: muscarinic receptors within the eye; details: in vivo; cited from earlier work
[4] = test system: pupil light response / muscarinic receptors within the iris; set-up: species or system human; details: in vivo

Structure (SMILES)	ability to accommodate ([1]; human)	mean increase in the AC/A ratio over baseline [1]	receptoral blockade suggested by AC/A increase [1]	apparent dissociation constant KA [2]	duration of effects [3]	duration of pupil dilatation and paralysis of accommodation [3]	baseline difference in pupil size [4]	estimated level of receptor blockade 1-(V400post/V400pre) [4]	peak difference in pupil constriction (light response) [4]
CN(C)CCOC(=O)C(c1ccccc1)C1(O)CCCC1 (stereo not drawn) [cyclopentolate]	maintained the ability to accommodate sufficiently to read at 33 cm	173%	42%						
CN1[C@@H]2CC[C@H]1C[C@@H](OC(=O)C(CO)c1ccccc1)C2 (stereo partly drawn) [atropine]				0.4 to 0.7 nM	6 to 12 days	up to 7 days	0.6 mm	35%	1.6 mm
